The values that follow come from patent US9795140B2, “Molecules having pesticidal utility, and intermediates, compositions, and processes, related thereto” (priority 2015, dated 2017).

The structures appear in SMILES notation.

Common to all, as to type: in vivo
For data set [1], the system named is Beet Armyworm (Spodoptera exigua, LAPHEG). As to the kind of experiment: Bioassay on Beet Armyworm (BAW), 128-well diet tray assay. As to conditions: 168 h, 50 μg/cm^2 on artificial diet, second instar larvae, 25° C., five to seven days, average of eight wells, read-out: BAW % Control (or Mortality) rating. The procedure, abridged:
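Test molecule dissolved in acetone-water 90:10 is applied at 50 μg/cm^2 onto artificial diet and allowed to dry. Second instar larvae, one to five per well, are then added, and trays are vented and kept at 25° C. for five to seven days before mortality is scored.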

The test system of data set [2] is Cabbage Looper (Trichoplusia ni, TRIPNI). Briefly: Bioassay on Cabbage Looper (CL), 128-well diet tray assay. The following applies: 168 h, 50 μg/cm^2 on artificial diet, second instar larvae, 25° C., five to seven days, average of eight wells, read-out: CL % Control (or Mortality) rating. An outline of the steps:
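Percent larval mortality, averaged across eight replicate wells, was scored after 5–7 days at 25 °C with a 14:10 photoperiod. Each well held 1 mL diet surface-treated at 50 μg/cm^2 with test molecule from a 90:10 acetone-water solution, then dried. Wells were infested with one to five second-instar cabbage loopers.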

The test system of data set [3] is Green Peach Aphid (Myzus persicae, MYZUPE). Briefly: Bioassay on Green Peach Aphid (GPA), foliar spray on cabbage seedlings. As to conditions: 72 h, 200 ppm spray on infested cabbage seedlings, three days, Abbott corrected % control, read-out: GPA % Control (or Mortality) rating. On the procedure:
Certain molecules disclosed in this document were tested against GPA using procedures described in the following example. In the reporting of the results, the “GPA & YFM Rating Table” was used (See Table Section).
Cabbage seedlings grown in 3-inch pots, with 2-3 small (3-5 cm) true leaves, were used as test substrate. The seedlings were infested with 20-50 GPA (wingless adult and nymph stages) one day prior to chemical application. Four pots with individual seedlings were used for each treatment. Test molecules (2 mg) were dissolved in 2 mL of acetone/methanol (1:1) solvent, forming stock solutions of 1000 ppm test molecule. The stock solutions were diluted 5× with 0.025% Tween 20 in water to obtain the solution at 200 ppm test molecule. A hand-held aspirator-type sprayer was used for spraying a solution to both sides of […] leaves until runoff. Reference plants (solvent check) were sprayed with the diluent only containing 20% by volume of acetone/methanol (1:1) solvent. Treated plants were held in a holding room for three days at approximately 25° C. and ambient relative humidity (RH) prior to grading. Evaluation was conducted by counting the number of live aphids per plant under a microscope. Percent control was measured using Abbott's correction formula (W. S. Abbott, “A Method of Computing the Effectiveness of an Insecticide” J. Econ. Entomol. 18 (1925), pp. 265-267) as follows. Corrected % Control=100*(X−Y)/X where X=No. of live aphids on solvent check plants and Y=No. of live aphids on treated plants. The results are indicated in the table entitled “Table ABC: Biological Results” (See Table Section).

Data set [4] relates to Yellow Fever Mosquito (Aedes aegypti, AEDSAE). As to the kind of experiment: Bioassay on Yellow Fever Mosquito (YFM) larvae, 96-well plate. As to conditions: about 1 day-old larvae, room temperature, 3 days, scored on mortality. An outline of the steps: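 Aedes aegypti larvae (about 1 day old) in liver-powder water were added to plates dispensed from DMSO master plates (4000 ppm stock) diluted with 90:10 water/acetone; six replicate plates per master. Lidded plates were held at room temperature for 3 days, then each well was scored for mortality.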

As to `CC(C)(C)c1ccc(CNC(=O)c2cc(NC(=O)C3C(c4cc(Cl)cc(Cl)c4)C3(Cl)Cl)ccc2Cl)cc1` (stereo not drawn) [F36, trans-N-(4-(tert-Butylbenzyl)-2-chloro-5-(2,2-dichloro-3-(3,5-dichlorophenyl)cyclopropane-1-carboxamido)benzamide], the mortality at 50 µg/cm2 in data set [1] and in data set [2] was 0% each time. Moreover, the mortality (in general, the percentage killed) at 200 ppm in data set [3] was 0%. The “YFM % Control (or Mortality) rating” value in data set [4] was “B (More than 0-Less than 80)”.
For the compound `O=C(NCC(F)(F)F)c1cc(NC(=O)[C@H]2[C@H](c3cc(Cl)cc(Cl)c3)C2(Cl)Cl)ccc1Cl` (relative stereo) [F4, trans-2-Chloro-5-(2,2-dichloro-3-(3,5-dichlorophenyl)cyclopropane-1-carboxamido)-N-(2,2,2-trifluoroethyl)benzamide], the mortality at 50 µg/cm2 in data set [1] and in data set [2] was 50 to 100% in each case. Moreover, in data set [3], the mortality at 200 ppm is 80 to 100%. In addition, the “YFM % Control (or Mortality) rating” value in data set [4] was “A (80-100)”.
In the case of `O=C(NCC(O)C(F)(F)F)c1cc(NC(=O)[C@H]2[C@H](c3cc(Cl)cc(Cl)c3)C2(Cl)Cl)ccc1Cl` (relative stereo) [PF16, trans-2-Chloro-5-(2,2-dichloro-3-(3,5-dichlorophenyl)cyclopropane-1-carboxamido)-N-(3,3,3-trifluoro-2-hydroxypropyl)benzamide], the mortality at 50 µg/cm2 in data set [1] and in data set [2] was 50 to 100% each time. The mortality at 200 ppm in data set [3] lay in the range of 80 to 100%. In addition, the “YFM % Control (or Mortality) rating” value in data set [4] is recorded as “A (80-100)”.
`O=C(NCCc1ccc(F)cc1)c1cc(NC(=O)C2C(c3cc(Cl)cc(Cl)c3)C2(Cl)Cl)ccc1Cl` (stereo not drawn) [F19, trans-N-2-Chloro-5-(2,2-dichloro-3-(3,5-dichlorophenyl)cyclopropane-1-carboxamido)-N-(4-fluorophenethyl)benzamide]: the mortality at 50 µg/cm2 in data set [1] and in data set [2] was 50 to 100% throughout. The mortality at 200 ppm in data set [3] lay in the range of 0 to 80%. Also, the “YFM % Control (or Mortality) rating” value in data set [4] was “A (80-100)”.
With `O=C(NCc1ccc(F)cc1)c1cc(NC(=O)[C@H]2[C@H](c3cc(Cl)cc(Cl)c3)C2(Cl)Cl)ccc1Cl` (relative stereo) [F28, trans-2-Chloro-5-(2,2-dichloro-3-(3,5-dichlorophenyl)cyclopropane-1-carboxamido)-N-(4-fluorobenzyl)benzamide], the mortality at 50 µg/cm2 in data set [1] and in data set [2] was 50 to 100% in each case. In data set [3], the mortality at 200 ppm was 80 to 100%. Further, in data set [4], the “YFM % Control (or Mortality) rating” value is recorded as “A (80-100)”.
For `O=C(NOCC1CC1)c1cc(NC(=O)C2C(c3cc(Cl)cc(Cl)c3)C2(Cl)Cl)ccc1Cl` (stereo not drawn) [F16, trans-N-2-Chloro-N-(cyclopropylmethoxy)-5-(2,2-dichloro-3-(3,5-dichlorophenyl)cyclopropane-1-carboxamido)benzamide], the mortality at 50 µg/cm2 in data set [1] and in data set [2] was 50 to 100% throughout. The mortality at 200 ppm in data set [3] fell in the range of 0 to 80%. The “YFM % Control (or Mortality) rating” value in data set [4] is “A (80-100)”.
Regarding `N#CCCNC(=O)c1cc(NC(=O)[C@H]2[C@H](c3cc(Cl)cc(Cl)c3)C2(Cl)Cl)ccc1Cl` (relative stereo) [F37, trans-2-Chloro-N-(2-cyanoethyl)-5-(2,2-dichloro-3-(3,5-dichlorophenyl)cyclopropane-1-carboxamido)benzamide], the mortality at 50 µg/cm2 in data set [1] and in data set [2] was 50 to 100% in each case. In addition, the mortality at 200 ppm in data set [3] lay in the range of 0 to 80%. Moreover, in data set [4], the “YFM % Control (or Mortality) rating” value is on record as “A (80-100)”.
Turning to `O=C(NCC(F)F)c1cc(NC(=O)[C@H]2[C@H](c3cc(Cl)cc(Cl)c3)C2(Cl)Cl)ccc1Cl` (relative stereo) [F48, trans-2-Chloro-5-(2,2-dichloro-3-(3,5-dichlorophenyl)cyclopropane-1-carboxamido)-N-(2,2-difluoroethyl)benzamide], the mortality at 50 µg/cm2 in data set [1] and in data set [2] was 50 to 100% each time. Further, in data set [3], the mortality at 200 ppm was 80 to 100%. Also, the “YFM % Control (or Mortality) rating” value in data set [4] is on record as “B (More than 0-Less than 80)”.
Take `CC(C)(CS(C)(=O)=O)NC(=O)c1cc(NC(=O)[C@H]2[C@H](c3cc(Cl)cc(Cl)c3)C2(Cl)Cl)ccc1Cl` (relative stereo) [F42, trans-2-Chloro-5-(2,2-dichloro-3-(3,5-dichlorophenyl)cyclopropane-1-carboxamido)-N-(2-methyl-1-(methylsulfonyl)propan-2-yl)benzamide]: the mortality at 50 µg/cm2 in data set [1] and in data set [2] was 50 to 100% each time. Also, in data set [3], the mortality at 200 ppm lay in the range of 0 to 80%. Besides, the “YFM % Control (or Mortality) rating” value in data set [4] was “A (80-100)”.
In the case of `O=C(NCCOCC1CC1)c1cc(NC(=O)[C@H]2[C@H](c3cc(Cl)cc(Cl)c3)C2(Cl)Cl)ccc1Cl` (relative stereo) [F43, trans-2-Chloro-N-(2-(cyclopropylmethoxy)ethyl)-5-(2,2-dichloro-3-(3,5-dichlorophenyl)cyclopropane-1-carboxamido)benzamide], the mortality at 50 µg/cm2 in data set [1] and in data set [2] was 50 to 100% each time. Further, the mortality at 200 ppm in data set [3] was 80 to 100%.
For the compound `O=C(NOCc1ccc(F)cc1)c1cc(NC(=O)C2C(c3cc(Cl)c(Cl)c(Cl)c3)C2(Cl)Cl)ccc1Cl` (stereo not drawn) [F18, trans-N-2-Chloro-5-(2,2-dichloro-3-(3,4,5-trichlorophenyl)cyclopropane-1-carboxamido)-N-((4-fluorobenzyl)oxy)benzamide], the mortality at 50 µg/cm2 in data set [1] and in data set [2] was 50 to 100% in each case. In addition, in data set [3], the mortality at 200 ppm lay within 0 to 80%.
Turning to `CSCCNC(=O)c1cc(NC(=O)[C@H]2[C@H](c3cc(Cl)cc(Cl)c3)C2(Cl)Cl)ccc1Cl` (relative stereo) [F52, trans-2-Chloro-5-(2,2-dichloro-3-(3,5-dichlorophenyl)cyclopropane-1-carboxamido)-N-(2-(methylthio)ethyl)benzamide], the mortality at 50 µg/cm2 in data set [1] and in data set [2] was 50 to 100% throughout. The “YFM % Control (or Mortality) rating” value in data set [4] is reported as “B (More than 0-Less than 80)”.
Consider `O=C(NCCN1CCNC1=O)c1cc(NC(=O)[C@H]2[C@H](c3cc(Cl)cc(Cl)c3)C2(Cl)Cl)ccc1Cl` (relative stereo) [F79, trans-2-Chloro-5-(2,2-dichloro-3-(3,5-dichlorophenyl)cyclopropane-1-carboxamido)-N-(2-(2-oxoimidazolidin-1-yl)ethyl)benzamide], for which the mortality at 50 µg/cm2 in data set [1] and in data set [2] was 50 to 100% each time. Also, the “YFM % Control (or Mortality) rating” value in data set [4] is given as “A (80-100)”.
For `CCN(C)C(=O)c1cc(NC(=O)[C@H]2[C@H](c3cc(Cl)cc(Cl)c3)C2(Cl)Cl)ccc1Cl` (relative stereo) [F63, trans-2-Chloro-5-(2,2-dichloro-3-(3,5-dichlorophenyl)cyclopropane-1-carboxamido)-N-ethyl-N-methylbenzamide], the mortality at 50 µg/cm2 in data set [1] and in data set [2] was 50 to 100% throughout. Further, the “YFM % Control (or Mortality) rating” value in data set [4] is given as “D (No activity noticed in this bioassay)”.
Turning to `O=C(NCC(F)(F)F)c1cc(NC(=O)[C@H]2[C@H](c3ccc(Cl)c(F)c3)C2(Cl)Cl)ccc1Cl` (relative stereo) [F120, 2-Chloro-5-(trans-2,2-dichloro-3-(4-chloro-3-fluorophenyl)cyclopropane-1-carboxamido)-N-(2,2,2-trifluoroethyl)benzamide], the mortality at 50 µg/cm2 in data set [1] and in data set [2] was 50 to 100% in each case. The “YFM % Control (or Mortality) rating” value in data set [4] is recorded as “A (80-100)”.
`O=C(NCC(F)(F)F)c1cc(NC(=O)[C@H]2[C@H](c3cccc(C(F)F)c3)C2(Cl)Cl)ccc1Cl` (relative stereo) [F134, 2-Chloro-5-(trans-2,2-dichloro-3-(3-(difluoromethyl)phenyl)cyclopropane-1-carboxamido)-N-(2,2,2-trifluoroethyl)benzamide]: the mortality at 50 µg/cm2 in data set [1] and in data set [2] was 50 to 100% in each case. The “YFM % Control (or Mortality) rating” value in data set [4] was “A (80-100)”.
